{
  "source": "paper PMC5335257",
  "about": "“Promoting in vivo remyelination with small molecules: a neuroreparative pharmacological treatment for Multiple Sclerosis” (Scientific Reports, 2017)",
  "key": {"[1]": {"test_system": "corpus callosum of cuprizone-fed mice", "experiment": "In vivo remyelination, cuprizone demyelination model", "parameters": "species or system C57/BL6 male mice", "experimental": "The protocol used was modified from previously described. Demyelination was induced by feeding 8 weeks old male C57/BL6 mice ad libitum with 0.2% cuprizone (bis-cyclo-hexanone-oxaldihydrazone; Sigma) mixed with milled chow (Altromin) for 5 weeks. A control group was maintained in the same conditions but fed with the chow without cuprizone. After cuprizone withdrawal, mice were intraperitoneally injected on 3 alternate days with PDE7-GSK3 inhibitors (VP1.15 or VP3.15; 10 mg/kg of animal) using a solution of the compound (100 mg/mL in DMSO) diluted 1:50 in a solution of 5% Tocrisolve (Tocris, UK) in distilledwater[36] or with the vehicle. 1 week after the cuprizone withdrawal, mice were transcardially perfused with 4% PFA in phosphate buffer. Another group was maintained for 3 weeks after cuprizone withdrawal and injected with 3 doses per week on alternate days of the PDE7-GSK3 inhibitors (10 mg/kg of animal per dose see above) or the vehicle and then perfused. The corpus callosum of three animals per condition was studied. For histological examination, forebrain coronal sections (20 μm) were taken of the rostral part of the corpus callosum as previously described[80][81] and stained with eriochrome cyanine using a standard protocol in order to study the myelin. Briefly, cryosections on glass slides were immersed in acetone for 5 minutes, dried and submerged in eriochrome cyanine solution (Sigma) for 1 hour and then differentiated in 5% (w/v) iron alum for 5–10 minutes, followed by a second differentiation with borax-ferricyanide solution for 5 minutes. The stained area was measured with the Image J software and related to the total analyzed area. For the immunofluorescence analysis, tissue sections were stained with anti-MBP (1:200; Serotec; Cat#MCA4095) for myelin, anti-PDGFRα (1:200; Santa Cruz; Cat#sc338) for OPCs, anti-CC1 (1:100; Calbiochem, Cat#OP80) and anti-GFAP (Glial fibrillary acidic protein; 1:200; Dako; Cat#Z0334) for astrocytes, and tomato lectin (TL; 1:67; Sigma; Cat#L0651) for microglia. Optical images were acquired using an Olympus BX61 microscope and fluorescence images were taken using a DFC480 FX digital camera (Leica) coupled to a Leica DM5000 B microscope or a confocal SP5 resonant scanner (Leica). Myelin staining (with MBP and eriochrome cyanine) and CC1 staining were quantified by taking pictures of non-overlapping fields of coronal sections of the corpus callosum, between the lateral ventricles (2 fields per section, 5–6 sections of each mice; using a x20 objective) and by measuring the fluorescence intensity or blue staining using the Image J software. The number of OPCs per field was also counted in pictures of the midline of the corpus callosum using the x40 objective (4–6 sections per mice). Astrocytes and microglia were evaluated in pictures of the same area of the corpus callosum using the x40 objective and quantified by measuring the area occupied by GFAP or TL staining respectively using the Image J software (4–6 sections per mice). Data were expressed as the mean ± SEM."}, "[2]": {"test_system": "corpus callosum of LPC-injected mice", "experiment": "In vivo remyelination, LPC demyelination model", "parameters": "species or system C57/BL6 male mice", "details": "10 mg/kg i.p. from 9 dpi", "experimental": "Anaesthetized 8 week old C57/BL6 male mice were injected with 2 μl of 1% LPC through a hole drilled in the skull at stereotactic coordinates 1.2 mm posterior, 0.5 mm lateral, 1.4 mm deep to the bregma over 4 minutes using a 30-gauge needle attached to a Hamilton syringe, driven by a KD Scientific Nano pump, for 4 minutes to reduce backflow as previously described. At 9 days post injection (dpi), the first intraperitoneal dose of PDE7-GSK3 inhibitors (VP1.15 or VP3.15; 10 mg/kg of animal) was injected using the same solution detailed above for the cuprizone model. Each inhibitor was injected into a group of 10 mice and another group of 10 mice was injected with the vehicle. Two days after, a second dose was injected (11 dpi) and 5 mice of each group were perfused at 14 dpi with 4% PFA and 2% glutaraldehyde (GTA) in phosphate buffer. The remaining 5 animals of each group received a third injection of inhibitors (15 dpi) and were perfused at 21 dpi. A control group of 3 non-lesioned and non-treated mice was used as control. Fixed brains were post-fixed in 1% GTA for 7 days and then coronally cut into 1 mm slices. The slices containing the injected areas were selected and the area of interest was cut and processed for electron microscopy into a resin (Araldite/TAAB 812 Resin Kit, TAAB) following manufacturer instructions.\nIn order to detect the injured areas for investigation, sagittal semi-thin sections (1 μm) were cut using an ultramicrotome (Leica) and stained with toluidine blue. Ultra-thin sections (60 nm thick) were cut and stained in uranyl acetate and lead citrate and the ultrastructure was analysed taking images with a GatanOrius CCD camera coupled to a transmission electronic microscope (Philips CM120). The percentage of myelinated fibres and the thickness of myelin sheaths were examined. The mean percentage of myelinated fibres was measured from 10 fields per animal. Grids were overlaid onto the images and all axons intersecting with the grid lines were counted as myelinated or not[83][84]. The thickness of myelin around myelinated fibres was expressed as a g-ratio (axon perimeter divided by myelinated fibre perimeter) using ImageJ by tracing around a minimum of 100 individual fibres per mouse, using a pen and electronic pad (Bamboo pad, Wacom). To select the fibres randomly, a grid composed by 8 μm[2] squares was overlaid onto the images and fibres in alternate squares were measured. Data were expressed as the mean ± SEM."}, "[3]": {"parameters": "method as in PMID 23077723, PMID 25264825", "details": "cited from earlier work"}, "[4]": {"test_system": "cerebellar slices demyelinated with LPC", "experiment": "Ex vivo remyelination in cerebellar slice cultures demyelinated with LPC", "type": "cell-based, CD1 P7 mice", "details": "5 μM, 3 days post lesion (3DPL)", "experimental": "The protocol used was modified from previously described. CD1 P7 mice were decapitated, and their cerebella were dissected into ice-cold HBSS (Invitrogen). 300 μm sagittal slices of cerebellum were cut using a McIllwain tissue chopper, placed on Millicell-CM organotypic culture inserts (3 slices per insert; Millipore) in a medium containing HBSS:BME: horse serum (1:2:1, Invitrogen), 28 mM D (+) - glucose (Normapur), […] L-Glutamine (Invitrogen) and 100 U/mL penicillin, 0.1 mg/mL streptomycin and 0.25 μg/ml Amphotericin B antibiotic anti-mycotic solution (Sigma) and maintained at 5% CO2 and 37 °C. Medium was changed every two days, and after 7 days in culture, demyelination was induced by addition of 0.5 mg/ml LPC (Sigma) to the medium for 15 h. After that, slices were treated with fresh medium containing PDE7-GSK3 or GSK3 inhibitors (VP1.15, VP3.15 or TDZD8; 5 μM). Cultures were maintained for 1 or 3 days post lesion (DPL), and then fixed for 40 minutes and immunostained with anti-MBP antibodies (myelin basic protein –as a marker of myelin; 1:200; Serotec; Cat#MCA4095) and anti-neurofilament antibody (as a marker of axons; 1:200; Abcam; Cat#ab8135). Fluorescence images were taken on a confocal SP5 resonant scanner (Leica Microsystems) at 1μm intervals in white matter areas at x40 magnification. The photographs were merged and co-localisation of both markers was quantified with Image J software using the colocalization highlighter plugin. This measurement was related to the area occupied by axons (neurofilament staining) and normalized with control values showing the data as the mean normalized myelination index ± SEM. Quantification was made in at least three independent experiments."}, "GSK-3": {"test_system": "GSK-3", "parameters": "method as in PMID 24437940", "details": "read-out: GSK-3 inhibition IC50; cited from earlier work"}, "[5]": {"test_system": "spinal cord injury models", "parameters": "method as in PMID 21297958, PMID 23077723", "details": "spinal cord injury models (as well as EAE); cited from earlier work"}, "OPCs": {"test_system": "OPCs", "parameters": "method as in PMID 23661015", "details": "cited from earlier work"}, "PDE7": {"test_system": "PDE7", "parameters": "method as in PMID 24437940", "details": "read-out: PDE7 inhibition IC50; cited from earlier work"}},
  "note": "pIC50: −log10 of the molar value. Entries after “also recorded” stand apart in the source; their conditions may differ.",
  "data": [
    {"molecule": "OCC/N=c1/nc(-c2ccccc2)n(-c2ccccc2)s1", "note": "[VP1.15]", "values": [
      {"measurement": "myelin staining (eriochrome cyanine) in corpus callosum vs vehicle", "setting": "[1]; 10 mg/kg i.p. on 3 alternate days, 1 week after cuprizone withdrawal", "result": "significantly higher myelin staining; also recorded: almost complete remyelination"},
      {"measurement": "myelin quantification by MBP immunodetection", "setting": "[1]; 10 mg/kg i.p., after cuprizone withdrawal", "result": "confirmed these results, with similar effects"},
      {"measurement": "microglial activation (TL staining) vs vehicle", "setting": "[1]; 1 week after cuprizone withdrawal", "result": "Neither VP1.15 nor VP3.15 induced changes"},
      {"measurement": "number of OPCs (PDGFRα+ cells) vs vehicle", "setting": "[1]; one week after cuprizone withdrawal", "result": "significantly lower number of OPCs"},
      {"measurement": "thickness of myelin sheaths (G-ratio) vs untreated demyelinated control", "setting": "[2]", "result": "increased the thickness"},
      {"measurement": "percentage of myelinated callosal fibers vs vehicle", "setting": "[2]; analysed at 14 or 21 dpi", "result": "increase"},
      {"measurement": "emetic side effects", "setting": "[3]", "result": "without emetic side effects"},
      {"measurement": "remyelination (normalized myelination index)", "setting": "[4]", "result": "increased"},
      {"measurement": "pIC50", "setting": "GSK-3", "result": 5.71},
      {"measurement": "immunomodulatory effect", "setting": "[5]", "result": "immunomodulatory effect"},
      {"measurement": "OPC differentiation (and survival) in vitro", "setting": "OPCs", "result": "enhance OPC differentiation and survival"},
      {"measurement": "pIC50", "setting": "PDE7", "result": 5.96}
    ]}
  ]
}
